Measurements: a melting point compilation (Tetko et al.)

| Compound | melting point [°C] |
| --- | --- |
| CCOC(=O)C(C)Oc1ccc(Oc2nc3ccc(Cl)cc3o2)cc1 (configuration not stated) | 90 |
| CC(O)CC(C)(C)O (configuration not stated) | -40 |
| CC12CCC(/C(=C/N(OC(=O)c3ccc([N+](=O)[O-])cc3)c3ccccc3)C1=O)C2(C)C (configuration not stated) | 180 |
| CCOC(=O)C(C)C(O)(c1ccccc1)c1ccccc1 (configuration not stated) | 102 |
| Cc1ccc(C(=O)N(NC(=O)c2ccccc2)C(C)(C)C)cc1 | 188 |
| COc1ccc(C#N)cc1[N+](=O)[O-] | 148 to 151 |
| CC(/C=C(\C)c1ccc(-c2ccccc2)cc1)=NNS(=O)(=O)c1ccc([N+](=O)[O-])c([N+](=O)[O-])c1 | 200 to 201 |
| CC(=O)N1CCCC(C)C1 (configuration not stated) | -13.6 |
| CC12CCC(/C(=C/Nc3ccccc3)C1=O)C2(C)C (configuration not stated) | 165 to 167 |
| O=Cc1ccc(Cn2cncn2)cc1 | 73 to 75 |
| CCS(=O)(=O)CCn1c([N+](=O)[O-])cnc1C | 128 |
| O=C1CCc2cc(Cl)ccc21 | 94 |
| CC(C)(C)C(O)C(Oc1ccc(-c2ccccc2)cc1)n1cncn1 (single isomer, unassigned; stereoisomer a) | 139 |
| O=C(O)c1ccc(O)c(F)c1F | 207 |
| COc1ccc(C)cc1O | 37 to 39 |
| CCCCOC(=O)C(=O)C1C(C)CC2C3CC(F)C4=CC(=O)C=CC4(C)C3C(O)CC21C (configuration not stated) | 195 |
| Clc1ccc(COC(Cn2ccnc2)c2ccc(Cl)cc2Cl)cc1 (configuration not stated) | 86.8 |
| Cc1ccc(C=C[N+](=O)[O-])cc1 | 96 to 99 |
| COc1ccc2c3c1OC1C(=O)CCC4(O)C(C2)N(C)CCC314 (configuration not stated) | 219 |
| CC(C)(C)OC(=O)N1CCC(Oc2ccc(C(=O)O)cc2)CC1 | 175 to 177 |
| Cc1nc(-c2cccc(C=O)c2)cs1 | 76 to 80 |
| CCCCCCCCCC(=O)OC1CCC2C3CCC4=CC(=O)CCC4C3CCC12C (configuration not stated) | 118 |

| Compound | melting point [°C] |
| --- | --- |
| OOC1CCCCC1 | -20 |
| Clc1cccc2cc3ccccc3cc12 | 83.5 |
| CCOC(=O)c1ccc(F)cc1 | 26 |
| COC(=O)c1ccc(C2(C)C=CC=CC=C2)cc1 | 61 |
| O=C(C=Cc1cccc([N+](=O)[O-])c1)c1ccc(F)cc1 | 166 to 167 |
| COC(=O)C1CC(=O)N(C)C1 (configuration not stated) | 15 |
| O=S(=O)(c1ccc(Cl)cc1)N(C1CCNCC1)C1CC1 | 111 to 114 |
| CC12COC(=O)CC1CCC1C2CCC2(C)C1CCC2(C)O (configuration not stated) | 236 |
| CC(C)(C)C=C=C=C=CC(C)(C)C | 135 |
| Cc1ccc(-c2ccc(/C=C/C(=O)c3ccc(C)o3)o2)cc1 | 143 |
| COc1ccc2[nH]c(C(=O)O)cc2c1 | 197 to 201 |
| CC(C)(C)C(N)C(=O)O (racemic) | 300 |
| CNC(C)Cc1ccc(O)cc1 (configuration not stated) | 161 |
| N#Cc1c(F)cccc1OCc1ccc(Cl)cc1 | 146 to 148 |
| N#Cc1ccc(N)cc1Cl | 118 |
| O=C1CCCC(O)=C1Cl | 198 to 204 |
| COC(=O)c1ccc(OCNC(=O)c2ccccc2)cc1 | 142 to 143 |
| O=C1c2ccccc2C(=O)N1c1nc2ccccc2[nH]1 | 272 to 275 |
| Clc1cccnc1-c1ccnc(Cl)c1Cl | 169 |
| O=c1[nH]c2scc(-c3ccccc3)c2c(=O)n1-c1ccc(F)cc1 | 300 to 302 |
| N#CC(O)C(Cl)(Cl)Cl (configuration not stated) | 61 |
| Oc1nsc(SCc2ccccc2)n1 | 123 to 125 |

| Compound | melting point [°C] |
| --- | --- |
| Cc1nc(C2CCN(C(=O)OC(C)(C)C)CC2)sc1C=O | 220 |
| CC(CC(C(N)=O)(c1ccccc1)c1ccccn1)N(C)C (configuration not stated) | 156 |
| CC1=C(C)C(=O)OC1=O | 96 |
| O=C(OCC(O)CO)c1ccccc1Nc1ccnc2cc(Cl)ccc12 (configuration not stated) | 170 |
| CCCCc1ccc2ccccc2c1 | -5 |
| C=C1C(=O)C23C4CC5C(C)(C)CCC(O)C5(C(OC)O4)C2C(O)CC1C3O (configuration not stated) | 261 |
| Cn1cnc([N+](=O)[O-])c1Sc1ncnc2nc[nH]c12 | 244 |
| O=C(CBr)c1ccc(F)cc1 | 47 |
| Cc1cccnc1C#N | 86 |
| N#Cc1ccc(C=Cc2ccc(C=Cc3ccc(C#N)cc3[N+](=O)[O-])cc2)c([N+](=O)[O-])c1 | 350 |
| NC(=O)OCCCl | 75.5 |
| CC(C)(Oc1ccc(C2CC2(Cl)Cl)cc1)C(=O)O (configuration not stated) | 115 |
| COC(=O)c1scc(S(C)(=O)=O)c1N | 145 |
| C=CC1CN2CCC1CC2C12Nc3ccccc3C1(O)CCO2 (configuration not stated) | 186 |
| CCOC(=O)c1c(NC(=O)CN2CCN(C(=O)OCC)CC2)sc2c1CCCC2 | 122 to 123 |
| c1cncc(-c2ccnc(-c3cccnc3)c2)c1 | 148 |
| CC(=CCNc1ncnc2nc[nH]c12)CO | 208 |
| CCCCCC1C(=O)CCC1CC(=O)OC (configuration not stated) | -10 |
| Cc1n[nH]c2c(=O)n(-c3ccc(Cl)cc3)c(C)nc12 | 313 to 315 |
| Cc1nnc2sc(SCc3ccccc3)nn2c1=O | 171 to 172 |
| Brc1cc(Br)c(Oc2cc(Br)c(Br)cc2Br)cc1Br | 160 to 163 |
| CC1CCC(C(C)C)C(OC(=O)C(Cc2ccccc2)Cc2ccccc2)C1 (configuration not stated) | 43 |

| Compound | melting point [°C] |
| --- | --- |
| CC(C)(C)OC(=O)NCc1ccsc1Br | 71 to 72 |
| CC1CCCC(=O)C1 (configuration not stated) | -73 |
| CC(C)(C)OC(=O)N[C@@H](Cc1c[nH]c2ccccc12)C(=O)O | 134 to 139 |
| Cc1cccc(NC(=O)C(F)(F)F)c1C(=O)O | 168 to 169 |
| CCCCc1c(C)nc(NC(=O)NS(=O)(=O)c2cccs2)nc1O | 200 to 201 |
| COc1c(C)c(C)c(OC)c2c1CC2Cl (configuration not stated) | 113 |
| c1ccc2c(c1)-c1cc3ccccc3c3cc4ccccc4c-2c13 | 232 |
| Nc1ccc(S(=O)c2ccc(N)cc2)cc1 | 175 |
| Cc1cc(C(F)(F)F)n2nc(N)c(/N=N/c3cccc(C(F)(F)F)c3)c2n1 | 171 |
| CCOC(=O)c1nc(-c2cncc(Br)c2)no1 | 101 to 103 |
| Cc1nc(N)ccc1[N+](=O)[O-] | 185 to 189 |
| c1ccc(C2=C(c3ccccc3)NC(c3ccncc3)N2)cc1 | 255 to 265 |
| Cn1c(=O)c(C2=NNC(=O)C2=NNc2ccccc2Br)c(O)c2ccccc21 | 270 |
| c1cnc2nccnc2c1 | 143 |
| CNC(=O)C(C)SCCSP(=O)(OC)OC (configuration not stated) | 43 |
| C[Si](C)(C)C1c2ccccc2-c2ccccc21 | 96.5 |
| IC(I)=C(I)I | 187 |
| Nc1ccc(S(=O)(=O)c2ccc(NC(=O)CCC(=O)O)cc2)cc1 | 157 |
| O=C(O)c1coc2ccccc2c1=O | 201 |
| CC(C)(C)OC(=O)NCc1nnc(S)n1C1CC1 | 193 to 194 |
| O=[N+]([O-])c1ccc(-c2nnc3n2NC(c2ccccc2O)S3)cc1 (configuration not stated) | 195 |
